{"source": "patent US20100160385A1", "about": "“FUNGICIDAL TRIPHENYL-SUBSTITUTED PYRIDONES” (E.I. DU PONT DE NEMOURS AND COMPANY, priority 2008, published 2010)", "key": {"[1]": {"tested_on": "Erysiphe graminis f. sp. tritici", "assay": "Test A: wheat powdery mildew, preventive spray on wheat seedlings", "assay_type": "in vivo", "conditions": "wheat seedlings sprayed to run-off, inoculated following day, rated after 8 days at 20° C.; 100 = 100% disease control, 0 = no control; test concentration not given"}, "[2]": {"tested_on": "Puccinia recondite f. sp. tritici", "assay": "Test B: wheat leaf rust, preventive spray on wheat seedlings", "assay_type": "in vivo", "conditions": "wheat seedlings sprayed to run-off, inoculated following day, 24 h saturated atmosphere then 7 days at 20° C.; 100 = 100% disease control, 0 = no control; test concentration not given"}, "[3]": {"tested_on": "Septoria tritici", "assay": "Test C: wheat leaf blotch, preventive spray on wheat seedlings", "assay_type": "in vivo", "conditions": "wheat seedlings sprayed to run-off, inoculated following day, 48 h saturated atmosphere then 19 days at 20° C.; 100 = 100% disease control, 0 = no control; test concentration not given"}, "[4]": {"tested_on": "Septoria nodorum", "assay": "Test D: wheat glume blotch, preventive spray on wheat seedlings", "assay_type": "in vivo", "conditions": "wheat seedlings sprayed to run-off, inoculated following day, 48 h saturated atmosphere then 7 days at 20° C.; 100 = 100% disease control, 0 = no control; test concentration not given"}, "[5]": {"tested_on": "Alternaria solani", "conditions": "tomato seedlings sprayed to run-off, inoculated following day, 48 h saturated atmosphere at 27° C. then 5 days at 20° C.; 100 = 100% disease control, 0 = no control; test concentration not given"}, "[6]": {"tested_on": "Botrytis cinerea", "conditions": "tomato seedlings sprayed to run-off, inoculated following day, 48 h saturated atmosphere at 20° C. then 3 days at 24° C.; 100 = 100% disease control, 0 = no control; test concentration not given"}}, "data": [{"smiles": "COc1cc(OC)c(Cl)c(-n2c(-c3ccc(F)cc3)cc(=O)c(C)c2-c2c(F)cc(F)cc2F)c1", "note": "[Compound 1, 1-(2-chloro-3-5-dimethoxyphenyl)-6-(4-fluorophenyl)-3-methyl-2-(2,4,6-trifluorophenyl)-4-(1H)-pyridinone]", "values": [{"measurement": "Test A disease control rating", "setting": "[1]", "result": 99, "unit": "%"}, {"measurement": "Test B disease control rating", "setting": "[2]", "result": 100, "unit": "%"}, {"measurement": "Test C disease control rating", "setting": "[3]", "result": 97, "unit": "%"}, {"measurement": "Test D disease control rating", "setting": "[4]", "result": 100, "unit": "%"}, {"measurement": "Test E disease control rating", "setting": "[5]", "result": 100, "unit": "%"}, {"measurement": "Test F disease control rating", "setting": "[6]", "result": 98, "unit": "%"}]}]}
